A value given as a limit tells only on which side of the number the result lay.

Assay [1] deals with SKBR3 (PI3Kα-Wild Type) cell line. The assay can be described thus: HTRF phospho-AKT(S473) cell assay in SKBR3 cells. In kind it is cell-based, human. As to conditions: Homo sapiens, SK-BR-3, 2 hours compound incubation, PDGF-BB stimulated. In short, it runs like this: (§1)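 T47D: RPMI + 10% FBS + 0.2 units/mL insulin, top 5 μM. SKBR3: McCoy's 5A + 10% FBS, top 10 μM, 70 ng/ml PDGF-BB last 15 min. Both: 12-pt 1:3, 2 h, 37° C, max 0.5% DMSO; HTRF pAKT(S473); IC50.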
On the technique in general: In TR-FRET formats the signal depends on donor and acceptor labels being close together.

The subject of assay [2] is T47D (PI3Kα-H1047R) cell line. The assay can be described thus: HTRF phospho-AKT(S473) cell assay in T47D cells. The settings on record: Homo sapiens, 2 hours compound incubation. In kind it is cell-based, human. Summed up:
as §1

[3] abbreviates: SKBR3 (PI3Kα-Wild Type) cells, HTRF phospho-AKT(S473).
Setting [4] is: T47D (PI3Kα-H1047R) cells, HTRF phospho-AKT(S473).
Where [5] appears, read: HTRF phospho-AKT(S473), SKBR3 (PI3Kα-Wild Type) cells.
Where [6] appears, read: HTRF phospho-AKT(S473), T47D (PI3Kα-H1047R) cells.

On to `Cc1cc([C@@H](C)Nc2ccc(Cl)nc2C(=O)NS(C)(=O)=O)c2nc(N3CCC(c4nn(C)cc4C)CC3)n(C)c(=O)c2c1` [Compound 248, ®-6-chloro-3-((1-(2-(4-(1,4-dimethyl-1H-pyrazol-3-yl)piperidin-1-yl)-3,6-dimethyl-4-oxo-3,4-dihydroquinazolin-8-yl)ethyl)amino)-N-(methylsulfonyl) picolinamide], for which the IC50 (commonly the concentration that inhibits the measured activity by half) in assay [1] (setting [3]) was 1 to 5 µM; in assay [2] (setting [4]), < 0.25 µM.

On to `Cc1cc([C@@H](C)Nc2ccc(Cl)nc2C(=O)NS(C)(=O)=O)c2nc(-c3ccc(-c4ccn(C)n4)nc3)n(C)c(=O)c2c1` [Compound 243, (R)-6-chloro-3-((1-(3,6-dimethyl-2-(6-(1-methyl-1H-pyrazol-3-yl)pyridin-3-yl)-4-oxo-3,4-dihydroquinazolin-8-yl)ethyl)amino)-N-(methylsulfonyl) picolinamide], for which the IC50 in assay [1] (setting [3]) is 1 to 5 µM; in assay [2] (setting [4]), < 0.25 µM.

Consider `Cc1cc([C@@H](C)Nc2ccc(Cl)nc2C(=O)NS(C)(=O)=O)c2nc(-c3ccc4nn(C)cc4c3)n(C3CC3)c(=O)c2c1` [Compound 847, (R)-6-chloro-3-((1-(3-cyclopropyl-6-methyl-2-(2-methyl-2H-indazol-5-yl)-4-oxo-3,4-dihydroquinazolin-8-yl)ethyl)amino)-N-(methylsulfonyl) picolinamide], for which the concentration for half-maximal inhibition (IC50) in assay [1] (SKBR3 (PI3Kα-Wild Type) cell line, phospho-AKT(S473) HTRF) was 1 to 5 µM; in assay [2] (T47D (PI3Kα-H1047R) cell line, phospho-AKT(S473) HTRF) it was < 0.25 µM.

For the compound `COc1nccc(N2C[C@@H]3C[C@H]2CN3c2nc3c([C@@H](C)Nc4ccc(Cl)nc4C(=O)NS(C)(=O)=O)cc(C)cc3c(=O)n2C)n1` [Compound 581, 6-chloro-3-(((R)-1-(2-((1S,4S)-5-(2-methoxypyrimidin-4-yl)-2,5-diazabicyclo [2.2.1]heptan-2-yl)-3,6-dimethyl-4-oxo-3,4-dihydroquinazolin-8-yl)ethyl)amino)-N-(methylsulfonyl) picolinamide], the IC50 is ≥ 5 µM in assay [1] (setting [5]) and 0.25 to 0.5 µM in assay [2] (setting [6]).

`Cc1cc([C@@H](C)Nc2ccc(Cl)nc2C(=O)NS(C)(=O)=O)c2nc(-c3ccc(O[C@@H]4CCNCC4(F)F)nc3)n(C)c(=O)c2c1` [Compound 333, 6-chloro-3-(((R)-1-(2-(6-(((R)-3,3-difluoropiperidin-4-yl)oxy)pyridin-3-yl)-3,6-dimethyl-4-oxo-3,4-dihydroquinazolin-8-yl)ethyl)amino)-N-(methylsulfonyl) picolinamide]: the IC50 was 1 to 5 µM in assay [1] (setting [3]) and < 0.25 µM in assay [2] (setting [4]).

Regarding `Cc1cc([C@@H](C)Nc2ccc(Cl)nc2C(=O)NS(C)(=O)=O)c2nc(N3CCC[C@H](c4c[nH]nc4C)C3)n(C)c(=O)c2c1` (relative stereo) [Compound 703, 6-chloro-3-(((R)-1-(3,6-dimethyl-2-((R*)-3-(3-methyl-1H-pyrazol-4-yl)piperidin-1-yl)-4-oxo-3,4-dihydroquinazolin-8-yl)ethyl)amino)-N-(methylsulfonyl) picolinamide], the IC50 in assay [1] (setting [5]) was ≥ 5 µM; in assay [2] (setting [6]) it was 0.25 to 0.5 µM.

In the case of `Cc1cc([C@@H](C)Nc2ccc(Cl)nc2C(=O)NS(C)(=O)=O)c2nc(N3CCC(c4n[nH]c(C)c4F)CC3)n(C)c(=O)c2c1` [Compound 547, (R)-6-chloro-3-((1-(2-(4-(4-fluoro-5-methyl-1H-pyrazol-3-yl)piperidin-1-yl)-3,6-dimethyl-4-oxo-3,4-dihydroquinazolin-8-yl)ethyl)amino)-N-(methylsulfonyl) picolinamide], the IC50 is ≥ 5 µM in assay [1] (setting [5]) and 0.25 to 0.5 µM in assay [2] (setting [6]).

Turning to `Cc1cc([C@@H](C)Nc2ccc(Cl)nc2C(=O)NS(C)(=O)=O)c2nc(N3CCN(c4cc(C)n(C)n4)CC3)n(C)c(=O)c2c1` [Compound 634, (R)-6-chloro-3-((1-(2-(4-(1,5-dimethyl-1H-pyrazol-3-yl)piperazin-1-yl)-3,6-dimethyl-4-oxo-3,4-dihydroquinazolin-8-yl)ethyl)amino)-N-(methylsulfonyl) picolinamide], the IC50 in assay [1] (setting [5]) is ≥ 5 µM; in assay [2] (setting [6]), < 0.25 µM.

On to `Cc1cc([C@@H](C)Nc2ccc(Cl)nc2C(=O)NS(C)(=O)=O)c2nc(N3C[C@@H]4C[C@H]3CN4c3ccccn3)n(C)c(=O)c2c1` [Compound 604, 6-chloro-3-(((R)-1-(3,6-dimethyl-4-oxo-2-((1S,4S)-5-(pyridin-2-yl)-2,5-diazabicyclo [2.2.1]heptan-2-yl)-3,4-dihydroquinazolin-8-yl)ethyl)amino)-N-(methylsulfonyl) picolinamide], for which the figures for the IC50 in assay [1] (setting [5]) and in assay [2] (setting [6]) were ≥ 5 µM and 0.25 to 0.5 µM, respectively.

On to `Cc1cc([C@@H](C)Nc2ccc(Cl)nc2C(=O)NS(C)(=O)=O)c2nc(N3C[C@@H]4[C@H](C3)[C@H]4c3ncn(C)n3)n(C)c(=O)c2c1` [Compound 507, 6-chloro-3-(((R)-1-(3,6-dimethyl-2-((1R,5S,6R)-6-(1-methyl-1H-1,2,4-triazol-3-yl)-3-azabicyclo[3.1.0]hexan-3-yl)-4-oxo-3,4-dihydroquinazolin-8-yl)ethyl)amino)-N-(methylsulfonyl) picolinamide], for which the IC50 in assay [1] (setting [5]) lay in the range of 1 to 5 µM; in assay [2] (setting [6]) it was 0.25 to 0.5 µM.

With `Cc1cc([C@@H](C)Nc2ccc(Cl)nc2C(=O)NS(C)(=O)=O)c2nc(N3Cc4cn(CC(C)(C)O)nc4C3)n(C)c(=O)c2c1` [Compound 216, (R)-6-chloro-3-((1-(2-(2-(2-hydroxy-2-methylpropyl)-2,6-dihydropyrrolo[3,4-c]pyrazol-5(4H)-yl)-3,6-dimethyl-4-oxo-3,4-dihydroquinazolin-8-yl)ethyl)amino)-N-(methylsulfonyl) picolinamide], the figures for the IC50 in assay [1] (setting [3]) and in assay [2] (setting [4]) were 1 to 5 µM and < 0.25 µM, respectively.

In the case of `Cc1cc([C@@H](C)Nc2ccc(Cl)nc2C(=O)NS(C)(=O)=O)c2nc(N3Cc4cnn(C5(C(F)(F)F)CC5)c4C3)n(C)c(=O)c2c1` [Compound 179, (R)-6-chloro-3-((1-(3,6-dimethyl-4-oxo-2-(1-(1-(trifluoromethyl)cyclopropyl)-4,6-dihydropyrrolo[3,4-c]pyrazol-5(1H)-yl)-3,4-dihydroquinazolin-8-yl)ethyl)amino)-N-(methylsulfonyl) picolinamide], the IC50 in assay [1] (setting [3]) is 1 to 5 µM; in assay [2] (setting [4]) it was < 0.25 µM.

On to `Cc1cc([C@@H](C)Nc2ccc(Cl)nc2C(=O)NS(C)(=O)=O)c2nc(-c3ccc4nn(C)cc4c3)n(C)c(=O)c2c1` [Compound 775, (R)-6-chloro-3-((1-(3,6-dimethyl-2-(2-methyl-2H-indazol-5-yl)-4-oxo-3,4-dihydroquinazolin-8-yl)ethyl)amino)-N-(methylsulfonyl) picolinamide], for which the IC50 in assay [1] (setting [5]) is 1 to 5 µM; in assay [2] (setting [6]), < 0.25 µM.

Take `Cc1cc([C@@H](C)Nc2ccc(Cl)nc2C(=O)NS(C)(=O)=O)c2nc(N3C[C@H]4C[C@@H]3CN4c3cnn(C)c3)n(C)c(=O)c2c1` [Compound 233, 6-chloro-3-(((R)-1-(3,6-dimethyl-2-((1R,4R)-5-(1-methyl-1H-pyrazol-4-yl)-2,5-diazabicyclo[2.2.1]heptan-2-yl)-4-oxo-3,4-dihydroquinazolin-8-yl)ethyl)amino)-N-(methylsulfonyl) picolinamide]: the IC50 in assay [1] (setting [3]) is 1 to 5 µM; in assay [2] (setting [4]), < 0.25 µM.

Regarding `Cc1cc([C@@H](C)Nc2ccc(Cl)nc2C(=O)NS(C)(=O)=O)c2nc(N3CCN(c4ccccc4)CC3)n(C)c(=O)c2c1` [Compound 183, (R)-6-chloro-3-((1-(3,6-dimethyl-4-oxo-2-(4-phenylpiperazin-1-yl)-3,4-dihydroquinazolin-8-yl)ethyl)amino)-N-(methylsulfonyl) picolinamide], the IC50 in assay [1] (setting [3]) was 1 to 5 µM; in assay [2] (setting [4]) it was < 0.25 µM.

(Values after US12281122B1, “PI3K inhibitors” (Cogent Biosciences, Inc., priority 2023, dated 2025).)
